Test results as given in patent publication EP4786465A1, “NOVEL COMPOUND, AND PHARMACEUTICAL COMPOSITION FOR PREVENTION OR TREATMENT OF CANCER OR TUMORS COMPRISING SAME” (Daewoong Pharmaceutical Co., Ltd., priority 2023, dated 2025).
Read-outs that look alike come from different tables or passages of the source.

How the values were obtained:
Type in all cases: cell-based
NCI-H226 = assay: Cell growth inhibition test (CellTiter-Glo Luminescent Cell Viability), NCI-H226; details: Homo sapiens
Description: (§1) The cell growth for the compounds prepared in Examples was measured by CellTiter-Glo® Luminescednt Cell Viability (Promega, Catalog #G7571) method using NCI-H226 (addexbio), NCI-H28 (Korea Cell Line Bank) cell lines. This evaluation method is a method in which when luciferase enzyme is activated by ATP flowing out from living cells, it reacts with a luciferin substrate, and the enzyme activity at this time is measured to confirm cell viability.
(§2) Specifically, NCI-H226, and NCI-H28 cells were prepared in 100 µL of cell culture medium (RPMI medium, 10% FBS, 1% P/S, 4.5 g/L D-Glucose, 2.383 g/L HEPES Buffer, L-Glutamine, 1.5 g/L Sodium Bicarbonate, 110 mg/L Sodium pyruvate) in a white clear bottom 96-well microplate. The prepared plate was incubated in a 5% CO2 incubator at 37°C for 24 hours, and then the previously prepared compounds of Examples were finally treated at concentrations of 0.0005, 0.005, 0.05, 0.5 and 5 µM, which was repeated three times for all treatment solutions. The plates treated with the compounds of Examples were incubated in a 5% CO2 incubator at 37°C. 100 µL/well of the substrate aqueous solution containing luciferin was added to a white clear-bottom 96 well microplate, thereby initiating an enzyme reaction. The reaction was performed at room temperature in the dark for 10 minutes, and the luminescence was measured using a Flexstation3 multi-mode microplate reader. In accordance with the instructions for the CellTiter-Glo™ Luminescednt Cell Viability, the luciferase enzyme activity, which represents the amount of ATP, was measured by a chemiluminescence method, and the inhibitory activity of the compounds according to the present disclosure was calculated. The results of each compound were analyzed using Microsoft Excel, and the IC50 values were calculated using GraphPad Prism software.

NCI-H28 = assay: Cell growth inhibition test (CellTiter-Glo Luminescent Cell Viability), NCI-H28; details: Homo sapiens
Description: as §1, §2

[1] = system: transcription factor TEAD; assay: Activity inhibition test of transcription factor TEAD (ONE-Glo Luciferase assay, Hippo Pathway TEAD reporter-MCF7 recombinant cell line); details: Homo sapiens; TEAD Reporter-MCF7 cells, 24 hours treatment, luciferase luminescence
Description: The transcription factor TEAD activity of the compounds prepared in the Examples was measured by the ONE-Glo™ Luciferase assay (Promega, Catalog #E6110) method using the Hippo Pathway TEAD reporter-MCF7 recombinant cell line (BPS Bioscience, Catalog #60618). Specifically, the TEAD Reporter-MCF7 cell line contains the firefly luciferase gene whose expression is regulated under the control of TEAD response elements in the MCF7, which is a human breast cancer cell line. In the cell line, a non-phosphorylated YAP/TAZ exists in the nucleus in a non-stressed condition, which continuously induces expression of the luciferase reporter. TEAD Reporter-MCF7 cells were prepared in 100 µL of cell culture medium (MEM medium, 10% FBS, 1% P/S, 400 µg/mL Geneticin, 1% […], 1 mM NA pyruvate, 10 µg/mL Insulin) in a white clear bottom 96-well microplate. The prepared plate was incubated in a 5% CO2 incubator at 37°C for 24 hours, and then the previously prepared compounds of Examples were finally treated at concentrations of 0.0005, 0.005, 0.05, 0.5 and 5 µM, which were repeated three times for all treatment solutions. The plates treated with the compounds of Examples were incubated in a 5% CO2 incubator at 37°C for 24 hours. 100 µL/well of the substrate aqueous solution containing luciferin was added to a white clear-bottom 96 well microplate, thereby initiating an enzyme reaction. The reaction was performed at room temperature for 5 minutes, and the luminescence (integration time 1000 ms) was measured using a Flexstation3 multi-mode microplate reader. In accordance with the instructions for the ONE-Glo™ Luciferase Assay, the luciferase enzyme activity, which represents the activity of the transcription factor TEAD, was measured by a chemiluminescence method, and the inhibitory activity of the compound according to the present disclosure was calculated. The results of each compound were analyzed using Microsoft Excel, and the IC50 values were calculated by GraphPad Prism software.

[2] = NCI-H226 cells, CellTiter-Glo, read-out: growth IC50 H226
[3] = NCI-H28 cells, CellTiter-Glo, read-out: growth IC50 H28

| SMILES | IC50 (NCI-H226; [2]) | IC50 (NCI-H28; [3]) | IC50 [1] | IC50 (NCI-H226; NCI-H226, read-out: growth IC50 H226) | IC50 (NCI-H28; NCI-H28, read-out: growth IC50 H28) |
| --- | --- | --- | --- | --- | --- |
| C=CC(=O)N1CCc2c(ccc(Nc3ccc(C(F)(F)F)cc3)c2-c2cn3c(n2)CCC3)C1 [Example 7, 1-(5-(6,7-dihydro-5H-pyrrolo[1,2-a]imidazol-2-yl)-6-((4-(trifluoromethyl)phenyl)amino)-3,4-dihydroisoquinolin-2(1H)-yl)prop-2-en-1-one] | 37.8 nM | 2180 nM | 14.3 nM |  |  |
| Cn1cnc(-c2cc3c(cc2Nc2ccc(C(F)(F)F)cc2)CN(CC#N)C3)c1 [Example 8, 2-(5-(1-methyl-1H-imidazol-4-yl)-6-((4-(trifluoromethyl)phenyl)amino)isoindolin-2-yl)acetonitrile] |  |  | 9350 nM | 1530 nM | 10000 nM |
| C=CC(=O)N1CCc2c(ccc(Nc3ccc(C(F)(F)F)c(F)c3)c2-c2cn(C)cn2)C1 [Example 9, 1-(6-((3-fluoro-4-(trifluoromethyl)phenyl)amino)-5-(1-methyl-1H-imidazol-4-yl)-3,4-dihydroisoquinolin-2(1H)-yl)prop-2-en-1-one] | 36 nM | 778 nM | 34.2 nM |  |  |
| C=CC(=O)N1CCc2c(ccc(Nc3ccc(F)cc3)c2-c2cn(C)cn2)C1 [Example 10, 1-(6-((4-fluorophenyl)amino)-5-(1-methyl-1H-imidazol-4-yl)-3,4-dihydroisoquinolin-2(1H)-yl)prop-2-en-1-one] | 100 nM | 1500 nM | 49.6 nM |  |  |
| C=CC(=O)N1CCc2c(ccc(Nc3cc(F)cc(F)c3)c2-c2cn(C)cn2)C1 [Example 13, 1-(6-((3,5-difluorophenyl)amino)-5-(1-methyl-1H-imidazol-4-yl)-3,4-dihydroisoquinolin-2(1H)-yl)prop-2-en-1-one] | 55.3 nM | 2000 nM | 28 nM |  |  |

Now from value to compound, other results behind:

| IC50 (NCI-H226; [2]) | IC50 (NCI-H28; [3]) | IC50 [1] | SMILES | IC50 (NCI-H226; NCI-H226, read-out: growth IC50 H226) | IC50 (NCI-H28; NCI-H28, read-out: growth IC50 H28) |
| --- | --- | --- | --- | --- | --- |
| 16.6 nM | 1800 nM | 6.78 nM | C=CC(=O)N1CCc2c(ccc(Nc3cc(F)c(F)c(F)c3)c2-c2cn(C)cn2)C1 [Example 14, 1-(5-(1-methyl-1H-imidazol-4-yl)-6-((3,4,5-trifluorophenyl)amino)-3,4-dihydroisoquinolin-2(1H)-yl)prop-2-en-1-one] |  |  |
| 30.9 nM | 2400 nM | 5.9 nM | C=CC(=O)N1CCc2c(ccc(Nc3ccc(Cl)cc3)c2-c2cn(C)cn2)C1 [Example 15, 1-(6-((4-chlorophenyl)amino)-5-(1-methyl-1H-imidazol-4-yl)-3,4-dihydroisoquinolin-2(1H)-yl)prop-2-en-1-one] |  |  |
| 35.2 nM | 636 nM | 8.1 nM | C=CC(=O)N1CCc2c(ccc(Nc3ccc(Br)cc3)c2-c2cn(C)cn2)C1 [Example 16, 1-(6-((4-bromophenyl)amino)-5-(1-methyl-1H-imidazol-4-yl)-3,4-dihydroisoquinolin-2(1H)-yl)prop-2-en-1-one] |  |  |
| 9.6 nM | 3300 nM | 8.6 nM | C=CC(=O)N1CCc2c(ccc(Nc3cc(F)c(C(F)(F)F)c(F)c3)c2-c2cn(C)cn2)C1 [Example 17, 1-(6-((3,5-difluoro-4-(trifluoromethyl)phenyl)amino)-5-(1-methyl-1H-imidazol-4-yl)-3,4-dihydroisoquinolin-2(1H)-yl)prop-2-en-1-one] |  |  |
| 139 nM | 1120 nM | 45 nM | C=CC(=O)N1CCc2c(ccc(Nc3cccc(C(F)(F)F)c3)c2-c2cn(C)cn2)C1 [Example 20, 1-(5-(1-methyl-1H-imidazol-4-yl)-6-((3-(trifluoromethyl)phenyl)amino)-3,4-dihydroisoquinolin-2(1H)-yl)prop-2-en-1-one] |  |  |
| 95 nM | > 5000 nM | 90.2 nM | C=CC(=O)N1CCc2c(ccc(Nc3cc(Cl)cc(Cl)c3)c2-c2cn(C)cn2)C1 [Example 21, 1-(6-((3,5-dichlorophenyl)amino)-5-(1-methyl-1H-imidazol-4-yl)-3,4-dihydroisoquinolin-2(1H)-yl)prop-2-en-1-one] |  |  |
| 80 nM | > 5000 nM | 15.4 nM | C=CC(=O)N1CCc2c(ccc(Nc3ccc(C(F)(F)F)cc3)c2-c2cn(CC)cn2)C1 [Example 24, 1-(5-(1-ethyl-1H-imidazol-4-yl)-6-((4-(trifluoromethyl)phenyl)amino)-3,4-dihydroisoquinolin-2(1H)-yl)prop-2-en-1-one] |  |  |
